Tests used:
[1] = molecular target: sigma-1 receptor (Homo sapiens, UniProt Q99720); experiment: sigma-1 receptor binding affinity (Ki); details: for Ki: read-out: Ki (nM) Sigma-1
[2] = molecular target: sigma-2 receptor (Homo sapiens, UniProt Q5BJF2); experiment: sigma-2 receptor binding affinity (Ki); details: for Ki: read-out: Ki (nM) Sigma-2
Chain of sigma-2 receptor (Q5BJF2 whole entry, species assumed): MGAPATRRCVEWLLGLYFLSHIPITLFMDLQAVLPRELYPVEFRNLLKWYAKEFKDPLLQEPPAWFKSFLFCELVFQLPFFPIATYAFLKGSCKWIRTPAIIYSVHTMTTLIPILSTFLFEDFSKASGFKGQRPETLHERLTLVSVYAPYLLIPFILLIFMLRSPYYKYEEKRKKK

Chain of sigma-1 receptor (Q99720 whole entry, species assumed): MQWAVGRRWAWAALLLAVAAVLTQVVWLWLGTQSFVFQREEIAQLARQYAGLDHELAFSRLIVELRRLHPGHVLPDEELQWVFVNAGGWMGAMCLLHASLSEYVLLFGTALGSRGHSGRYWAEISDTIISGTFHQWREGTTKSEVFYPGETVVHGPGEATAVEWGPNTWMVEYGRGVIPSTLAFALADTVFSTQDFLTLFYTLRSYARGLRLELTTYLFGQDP

Row | Structure (SMILES) | Ki [1] [nM] | Ki [2] [nM] | activity against sigma-1 (in words) [1] | activity against sigma-2 (in words) [2] | improvement in potency against sigma-1 receptor ([1]; relative to the comparator analog named in the text) | selectivity sigma-1 versus sigma-2 (in words) [1]
1 | NC(=O)c1ccc(-n2nc3c(c2C(=O)N2CCCCC2)CC(NCCc2ccccc2)CC3)cc1 (stereo not shown) [compound 201242, 4-(5-(Phenethylamino)-3-(piperidine-1-carbonyl)-4,5,6,7-tetrahydro-2H-indazol-2-yl)benzamide] | 588 | > 10000 |  |  |  | 
2 | NC(=O)c1ccc(-n2nc(C(=O)N3CCCCC3)c3c2CCC(NCCc2ccccc2)C3)cc1 (stereo not shown) [compound 201243, 4-(5-(Phenethylamino)-3-(piperidine-1-carbonyl)-4,5,6,7-tetrahydro-1H-indazol-1-yl)benzamide] | 465 | 561 |  |  |  | 
3 | C=Cc1ccc(-n2nc3c(c2C(=O)N2CCCCC2)CC(NCCc2ccccc2)CC3)cc1 (stereo not shown) [compound 201591, (5-(phenethylamino)-2-(4-vinylphenyl)-4,5,6,7-tetrahydro-2H-indazol-3-yl)(piperidin-1-yl)methanone] | 96 | 32 |  |  |  | 
4 | O=C(c1nn(-c2ccccc2)c2c1CC(NCc1ccccc1)CC2)N1CCCCC1 (stereo not shown) [compound 201665, (5-(Benzylamino)-1-phenyl-4,5,6,7-tetrahydro-1H-indazol-3-yl)(piperidin-1-yl)methanone] | 710 | 492 |  |  |  | 
5 | O=C(c1c2c(nn1-c1ccccc1)CCC(NCCc1ccncc1)C2)N1CCCCC1 (stereo not shown) [compound 201670, (2-Phenyl-5-((2-(pyridin-4-yl)ethyl)amino)-4,5,6,7-tetrahydro-2H-indazol-3-yl)(piperidin-1-yl)methanone] | 226 | 296 |  |  |  | 
6 | O=C(c1c2c(nn1-c1ccccc1)CCC(NCc1ccccc1)C2)N1CCCCC1 (stereo not shown) [compound 201676, (5-(Benzylamino)-2-phenyl-4,5,6,7-tetrahydro-2H-indazol-3-yl)(piperidin-1-yl)methanone] | 38 | 139 |  |  |  | 
7 | O=C(c1nn(-c2ccccc2)c2c1CC(NCCc1ccc3c(c1)OCO3)CC2)N1CCCCC1 (stereo not shown) [compound 201679, (5-((2-(Benzo[d][1,3]dioxol-5-yl)ethyl)amino)-1-phenyl-4,5,6,7-tetrahydro-1H-indazol-3-yl)(piperidin-1-yl)methanone] | 547 | 349 |  |  |  | 
8 | O=C(c1c2c(nn1-c1ccccc1)CCC(NCCc1ccc(C(F)(F)F)cc1)C2)N1CCCCC1 (stereo not shown) [compound 201683, (2-Phenyl-5-((4-(trifluoromethyl)phenethyl)amino)-4,5,6,7-tetrahydro-2H-indazol-3-yl)(piperidin-1-yl)methanone] | 213 | > 10000 |  |  |  | 
9 | CCCn1nc(C(=O)N(C)C)c2c1CCC(NC(=O)c1ccc(F)cc1)C2 (stereo not shown) [compound 2000623, 5-(4-fluorobenzamido)-N,N-dimethyl-1-propyl-4,5,6,7-tetrahydro-1H-indazole-3-carboxamide] | > 10000 | > 10000 | did not restore the activity | did not restore the activity |  | 

Further lines, with some results ahead:

Row | Ki [1] [nM] | Ki [2] [nM] | activity against sigma-1 (in words) [1] | activity against sigma-2 (in words) [2] | improvement in potency against sigma-1 receptor ([1]; relative to the comparator analog named in the text) | Structure (SMILES) | selectivity sigma-1 versus sigma-2 (in words) [1]
10 | 458 | 305 |  |  |  | C=Cc1ccc(-n2nc(C(=O)N3CCCCC3)c3c2CCC(NCCc2ccccc2)C3)cc1 (stereo not shown) [compound 201244, (5-(Phenethylamino)-1-(4-vinylphenyl)-4,5,6,7-tetrahydro-1H-indazol-3-yl)(piperidin-1-yl)methanone] | 
11 | 1030 | 517 |  |  |  | O=C(c1nn(-c2ccccc2)c2c1CC(NCCc1ccncc1)CC2)N1CCCCC1 (stereo not shown) [compound 201666, (1-Phenyl-5-((2-(pyridin-4-yl)ethyl)amino)-4,5,6,7-tetrahydro-1H-indazol-3-yl)(piperidin-1-yl)methanone] | 
12 | 131 | 91 |  |  |  | O=C(c1nn(-c2ccccc2)c2c1CC(NCCc1ccc(F)cc1)CC2)N1CCCCC1 (stereo not shown) [compound 201667, (5-((4-Fluorophenethyl)amino)-1-phenyl-4,5,6,7-tetrahydro-1H-indazol-3-yl)(piperidin-1-yl)methanone] | equipotent inhibitor against both sigma receptors
13 | 204 | > 10000 |  |  |  | O=C(c1nn(-c2ccccc2)c2c1CC(NCCc1cccc(O)c1)CC2)N1CCCCC1 (stereo not shown) [compound 201681, (5-((3-Hydroxyphenethyl)amino)-1-phenyl-4,5,6,7-tetrahydro-1H-indazol-3-yl)(piperidin-1-yl)methanone] | 
14 | 337 | > 10000 |  |  |  | O=C(c1nn(-c2ccccc2)c2c1CC(NCCc1ccc(C(F)(F)F)cc1)CC2)N1CCCCC1 (stereo not shown) [compound 201684, (1-Phenyl-5-((4-(trifluoromethyl)phenethyl)amino)-4,5,6,7-tetrahydro-1H-indazol-3-yl)(piperidin-1-yl)methanone] | 
15 | 159 | > 10000 |  |  | over 4 fold | O=C(c1nn(-c2ccccc2)c2c1CC(NCc1ccc(F)cc1)CC2)N1CCCCC1 (stereo not shown) [compound 2001685, (5-((4-Fluorobenzyl)amino)-1-phenyl-4,5,6,7-tetrahydro-1H-indazol-3-yl)(piperidin-1-yl)methanone] | 

Reference: patent US12692236B2, “Small molecule modulators of sigma-1 and sigma-2 receptors and uses thereof” (Northwestern University, priority 2018, dated 2026)
